Assay results taken from patent publication US20250084074A1, “SUBSTITUTED HETEROCYCLES AS HSET INHIBITORS” (MERCK PATENT GMBH, priority 2022, published 2025).

The compounds below were run against HSET full length protein (Homo sapiens (Human), UniProt Q9BW19) (assay: HSET ADP-Glo Assay S - 3 μM ATP). Conditions: 5 nM HSET, 70 μg/mL microtubule, 80 min at rt, read-out: COMBINED HSET ADP GLO IC50.
HSET full length protein, sequence (Q9BW19 whole entry): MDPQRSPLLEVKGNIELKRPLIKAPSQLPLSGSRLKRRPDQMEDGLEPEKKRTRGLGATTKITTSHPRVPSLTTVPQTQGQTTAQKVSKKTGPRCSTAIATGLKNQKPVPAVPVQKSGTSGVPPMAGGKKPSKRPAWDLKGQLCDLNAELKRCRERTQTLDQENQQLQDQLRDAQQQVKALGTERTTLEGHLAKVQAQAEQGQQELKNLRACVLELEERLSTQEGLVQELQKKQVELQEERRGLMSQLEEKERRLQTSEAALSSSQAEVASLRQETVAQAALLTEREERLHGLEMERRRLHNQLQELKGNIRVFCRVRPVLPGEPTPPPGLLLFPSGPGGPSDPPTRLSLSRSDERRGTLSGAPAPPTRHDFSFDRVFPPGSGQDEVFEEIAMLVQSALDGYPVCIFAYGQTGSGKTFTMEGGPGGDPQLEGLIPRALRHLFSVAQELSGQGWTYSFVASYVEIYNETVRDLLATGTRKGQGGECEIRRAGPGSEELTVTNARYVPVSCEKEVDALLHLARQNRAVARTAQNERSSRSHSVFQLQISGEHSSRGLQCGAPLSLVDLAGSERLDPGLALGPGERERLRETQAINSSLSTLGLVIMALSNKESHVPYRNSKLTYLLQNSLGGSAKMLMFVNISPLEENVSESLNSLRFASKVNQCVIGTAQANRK
Assay type: biochemical
Procedure: Example 281: Testing compounds of the present invention for inhibitory activities against HSET—HSET ADP-Glo Assay S—3 μM ATP
Reagents: (+4° C. Storage) • Paclitaxel Prod.No.TXD.01 2 mM in DMSO (from Universal Biologicals Cambridge). • Tubulin Protein (Pre-formed Microtubules): Bovine Brain Prod.No.MT001-XL Lot.025 10 mg/mL (from Universal Biologicals Cambridge).
Reagents: (−80° C. Storage) • MT001-XL—Tubulin Protein (Pre-formed Microtubules): Bovine Brain—reconstituted in buffer—15 mM PIPES pH7, 1 mM MgCl2, 20 μM paclitaxel (aliquots at 10 mg/mL) from Universal Biologicals Cambridge. • HSET full length protein—Current batch is FL HSET Prep1 (SEQ-000096_002-01_01) • Buffer is 20 mM Hepes pH 7.5, 200 mM NaCl, 2 mM TCEP, 5% glycerol (5 μL aliquots at 10.2 μM)
Reagents: (−20° C. Storage) • ADP-Glo Kinase Assay kit (Promega Prod.No.V9102) 10,000 assay points • ADP-Glo reagent (50 mL), Kinase Detection Reagent (100 mL), and Ultrapure ATP (10 mM) aliquoted
Buffer Stocks (filtered and stored at rt for up to 1 month) • HEPES acid, 4-(2-Hydroxyethyl)piperazine-1-ethanesulfonic acid MW:238, 238.3 mg/mL=1 M • 7149 mg/30 mL=1M (pH to 6.8 with 5 M NaOH) • PIPES, 1,4-Piperazinediethanesulfonic acid MW: 302.4, 30.24 mg/mL=100 mM; 907.2 mg/30 mL=100 mM (pH to 7 with 5 M NaOH, white cloudy suspension until the pH changes) • EGTA, Ethylene glycol-bis(2-aminoethylether)-N,N,N′,N′-tetraacetic acid MW: 380.35, 38.035 mg/mL=100 mM • 1901.75 mg/50 mL=100 mM (pH to ˜7 with 5 M NaOH)—takes a long time to get into solution and for pH to stabilize • Triton-X-100, MW: 625, 62.5 mg/mL=100 mM (6.25% w/v) (viscous, pipette Triton X-100 with a Gilson using a trimmed pipette tip)
ECHO Protocol • Create an ECHO intermediate plate by adding 24.5 μL DMSO to columns 1 & 2, and 40 μL DMSO to columns 23 & 24 of an ECHO 384PP plate • Add 100 nL of compound/DMSO per well in 384-well Proxi-Plate Plus (white) —Perkin Elmer Cat #6008289 using ECHO dose response protocol 100 nL normal to proxi_8pt_200 uM.
Assay buffer (Keep on ice): HEPES pH 6.8, MgCl2, EGTA, Triton X-100, DTT, HPLC H2O Microtubule Working Solution (3.2): • 1 ml PM buffer: PIPES pH 7.0, MgCl2, HPLC H2O, Paclitaxel, mix well, store at rt • Then add 26.4 μL of 10 mg/ml microtubules to 724 μL of the above PM buffer to make 750 μL of microtubule working solution @350 μg/mL microtubules (store at rt)
Stock HSET enzyme solution (3.1)—keep on ice • Add 1.33 μL 10.2 μM HSET Prepi (SEQ-000096_002-01_01) to 1358 μL assay buffer to make a 10 nM stock for a 5 nM final assay concentration (1/1020 dilution).
HSET/Microtubule working solution (3.3) • Mix solutions 3.1 and 3.2 in the ratio of 2.5:1 (1214.3 μL 3.1+485.7 μL 3.2) keep at rt for 15 min • 3.2 is diluted 3.5-fold, 3.1 is diluted 1.4-fold BLANK solution is 357 μL 2XAB+143 μL microtubule working solution 3.2. (Same proportions as HSET/Microtubule working solution (3.3))
ATP Working solution is 1 μL 10 mM UltraPure ATP (Promega kit)+999 μL ddH20 gives 10 μM ATP for a 3 μM final assay concentration, stored on ice.
Assay procedure in PROXIPLATE 384 PLUS WHITE (Perkin Elmer) plates (Remove 2.4 mL ADP Glo and 4.5 mL Kinase detection reagent from freezer to warm up to rt) • Add 3.5 μL BLANK solution to assay plate (column 12) • Add 3.5 μL HSET/Microtubule solution (3.3) (columns 1-11 & 13-24) • Centrifuge at 1000 rpm for 1 min • (pre-incubate enzyme and compound for 10 min)
Add 1.5 μL of 10 μM ATP to start reaction gives a final [HSET] of 5 nM, [ATP] of 3 μM and [microtubule] of 70 μg/mL, centrifuge at 1000 rpm for 1 min and incubated at rt for 80 min.
After the 80-minute incubation, stop reaction by adding 5 μL ADP-Glo reagent to all wells. Centrifuge for 1 min at 1000 rpm, leave for 40 min at rt.
In the dark/away from direct light, add 10 μL Kinase Detection Reagent (KDR) to all wells, Seal plate with a Topseal (Perkin Elmer Cat #6050185) and centrifuge as above, leave for 40 min at rt covered in foil. […]
For `CCCOC(=O)c1sc(C(=O)N2CC[C@H](Nc3nccc4ccc(-c5noc(C)n5)cc34)C2)nc1C` [Example 243, Propyl (S)-4-methyl-2-(3-((7-(5-methyl-1,2,4-oxadiazol-3-yl)isoquinolin-1-yl)amino)pyrrolidine-1-carbonyl)thiazole-5-carboxylate], the IC50 was 11 nM.
With `Cc1nc(NC(=O)C[C@@H](CC#N)Nc2nccc3ccc(C#N)cc23)sc1C(=O)OC(C)C` [Example 209, Propan-2-yl 2-[(3R)-4-cyano-3-[(7-cyanoisoquinolin-1-yl)amino]butan-amido]-4-methyl-1,3-thiazole-5-carboxylate] the IC50 was 4000 nM.
With `CCCNC(=O)c1cc(NC(=O)CCNc2nccc3ccc(-c4noc(C)n4)cc23)nn1C` [Example 73, 1-Methyl-3-(3-((7-(5-methyl-1,2,4-oxadiazol-3-yl)isoquinolin-1-yl)amino)propanamido)-N-propyl-1 H-pyrazole-5-carboxamide] the IC50 was 3890 nM.
`CCCOC(=O)n1cc(NC(=O)[C@@H](O)CNC(=O)c2cccc(-c3cnn(C)c3)c2)nc1C` [Example 267] was tested, and the IC50 was 380 nM.
In the case of `Cc1nc(NC(=O)C[C@@H](CC#N)NC(=O)c2cccc(-c3cnn(C)c3)n2)sc1C(=O)OC(C)C` [Example 214], the IC50 is reported as 2400 nM.
For `Cc1nc(-c2cccc(C(=O)NCCC(=O)Nc3cn(C(=O)OC(C)C)c(C)n3)c2)no1` [Example 264], the IC50 was 280 nM.
Compound `CCOC(=O)c1sc(NC(=O)CCNC(=O)c2cc(Cl)cc(C(=O)OC)c2)nc1C` [Example 13, Ethyl 2-[3-[(3-chloro-5-methoxycarbonyl-benzoyl)amino]propanoylamino]-4-methyl-thiazole-5-carboxylate] has an IC50 of 9 nM.
`Cc1nc(-c2cccc(C(=O)N[C@H](CC#N)CC(=O)Nc3nc(C)c(C(=O)OC(C)(C)C)s3)c2)no1` [Example 194, tert-Butyl 2-[(3R)-4-cyano-3-{[3-(5-methyl-1,2,4-oxadiazol-3-yl)phenyl]form-amido}butanamido]-4-methyl-1,3-thiazole-5-carboxylate] was tested, and the IC50 was 96 nM.
For `CCOC(=O)n1cc(NC(=O)CCNc2nccc3ccc(-c4noc(C)n4)cc23)nc1C` [Example 259, Ethyl 2-methyl-4-(3-{[7-(5-methyl-1,2,4-oxadiazol-3-yl)isoquinolin-1-yl]amino}propanamido)-1 H-imidazole-1-carboxylate], the IC50 was 531 nM.
`CCCOC(=O)c1sc(NC(=O)CCNC(=O)c2cc(-c3noc(C)n3)cc(C(F)(F)F)c2)nc1C` [Example 32, Propyl 4-methyl-2-(3-(3-(5-methyl-1,2,4-oxadiazol-3-yl)-5-(trifluoromethyl)benzamido)propanamido)thiazole-5-carboxylate] showed an IC50 of 11 nM.
Compound `CCOC(=O)c1sc(NC(=O)CCNC(=O)c2cc(CC)cc(C(=O)OC)c2)nc1C` [Example 19, Ethyl 2-[3-[(3-ethyl-5-methoxycarbonyl-benzoyl)amino]-propanoylamino]-4-methyl-thiazole-5-carboxylate] has an IC50 of 17 nM.
With `Cc1nc(-c2ccc3ccnc(NCCC(=O)Nc4cc(C(F)(F)F)n(C)n4)c3c2)no1` [Example 56, 3-((7-(5-methyl-1,2,4-oxadiazol-3-yl)isoquinolin-1-yl)amino)-N-(1-methyl-5-(trifluoromethyl)-1 H-pyrazol-3-yl)propenamide] the IC50 was 1260 nM.
Work on `COc1ccc(CCCOC(=O)c2sc(NC(=O)CCNC(=O)c3cccc(-c4noc(C)n4)c3)nc2C)cc1` [Example 126, 3-(4-methoxyphenyl)propyl 4-methyl-2-(3-(3-(5-methyl-1,2,4-oxadiazol-3-yl)benzamido)propanamido)thiazole-5-carboxylate] yielded an IC50 of 39 nM.
`Cc1nc(NC(=O)C[C@H](CC#N)Nc2nccc3ccc(-c4cnn(C)c4)cc23)sc1C(=O)OC(C)C` [Example 210, Propan-2-yl 2-[(3S)-4-cyano-3-{[7-(1-methyl-1 H-pyrazol-4-yl)isoquinolin-1-yl]amino}butanamido]-4-methyl-1,3-thiazole-5-carboxylate] was tested, and the IC50 was 700 nM.
Compound `Cc1nc(-c2ccc3ccnc(N[C@H]4CCN(C(=O)N(C)c5nc(C)c(C(=O)OC(C)(C)C)s5)C4)c3c2)no1` [Example 227, tert-Butyl 4-methyl-2-[methyl-[(3S)-3-[[7-(5-methyl-1,2,4-oxadiazol-3-yl)-1-isoquinolyl]amino]pyrrolidine-1-carbonyl]amino]thiazole-5-carboxylate] has an IC50 of 88 nM.
For `CCCOC(=O)c1sc(NC(=O)CCNC(=O)c2cc(C#N)cc(C(=O)OC)c2)nc1C` [Example 30, Propyl 2-(3-(3-cyano-5-(methoxycarbonyl)benzamido)propanamido)-4-methylthiazole-5-carboxylate], the IC50 was 186 nM.
`CCCOC(=O)c1sc(N(C)C(=O)CCNC(=O)c2cc(Cl)cc(-c3noc(C)n3)c2)nc1C` [Example 233, Propyl 2-(3-(3-chloro-5-(5-methyl-1,2,4-oxadiazol-3-yl)benzamido)-N-methylpropanamido)-4-methylthiazole-5-carboxylate] gave an IC50 of 30 nM.
`Cc1nc(NC(=O)CCNC(=O)c2cccc(-c3nnn(C)n3)c2)sc1C(=O)OC(C)(C)C` [Example 39, tert-Butyl 4-methyl-2-[3-[[3-(2-methyltetrazol-5-yl)benzoyl]amino]propanoylamino]thiazole-5-carboxylate] gave an IC50 of 8 nM.
`CCCOC(=O)c1sc(C(=O)NCCNc2nccc3ccc(-c4noc(C)n4)cc23)nc1C` [Example 70, Propyl 4-methyl-2-((2-((7-(5-methyl-1,2,4-oxadiazol-3-yl)isoquinolin-1-yl)amino)ethyl)carbamoyl)thiazole-5-carboxylate] showed an IC50 of 11 nM.
`CC(=O)NCCCCOC(=O)c1sc(NC(=O)CCNC(=O)c2cccc(-c3noc(C)n3)c2)nc1C` [Example 130, 4-Acetamidobutyl 4-methyl-2-(3-(3-(5-methyl-1,2,4-oxadiazol-3-yl)benzamido)propanamido)thiazole-5-carboxylate] showed an IC50 of 15400 nM.
In the case of `CCCOC(=O)c1sc(C(=O)N2CC[C@H](NC(=O)c3cccc(-c4nnn(C)n4)c3)C2)nc1C` [Example 242, Propyl 4-methyl-2-[(3S)-3-[[3-(2-methyltetrazol-5-yl)benzoyl]amino]pyrrolidine-1-carbonyl]thiazole-5-carboxylate], the IC50 is reported as 30 nM.
In the case of `Cc1nc(-c2ccc3ccnc(NC[C@@H](O)C(=O)Nc4nc(C)c(C(=O)OC(C)(C)C)s4)c3c2)no1` [Example 177, tert-Butyl (R)-2-(2-hydroxy-3-((7-(5-methyl-1,2,4-oxadiazol-3-yl)isoquinolin-1-yl)amino)propanamido)-4-methylthiazole-5-carboxylate], the IC50 is reported as 2 nM.
Work on `Cc1nc(NC(=O)C[C@@H](CC#N)NC(=O)c2cccc(-c3cnn(C)c3)c2)sc1C(=O)OC(C)C` [Example 204] yielded an IC50 of 5700 nM.
